Where two headings read alike, the source gives them in different places.
Legend:
[1] = in vivo
[2] = Study PKH-95032-008: Phase 1, open-label, single-dose pharmacokinetics, safety and tolerability in moderate hepatic impairment vs matched normal hepatic function; format: in vivo, human; settings: for Tmax: median (minimum, maximum); for Cmax, u: unbound; for half-life / fraction unbound: arithmetic mean±StD; for fraction unbound: read-out: Fu, ave; for AUC0-t, Ratio (%) of Geometric Means (Test/Reference) / Cmax, Ratio (%) of Geometric Means (Test/Reference): moderate hepatic impairment (Test) / normal hepatic function
[3] = Study AG881-C-004 (INDIGO): hepatic enzyme elevation adverse events and dose modifications; format: in vivo, human; settings: for TEAEs leading to death, number of subjects / Treatment-related TEAEs leading to death, number of subjects: 40 mg QD, hepatic enzymes elevation SMQ
Description: For Study AG881-C-004, the inclusion criteria specified that subjects with adequate hepatic (serum total bilirubin ≤1.5× upper limit of normal (ULN); and aspartate aminotransferase [AST] or alanine aminotransferase [ALT] at or below ULN; and AP≤2.5×ULN) were eligible for enrollment.
In the INDIGO clinical trial (Study AG881-C-004), 18.6% (31/167) of patients treated with Vorasidenib experienced ALT elevations ≥3 times the ULN and 8.4% (14/167) experienced AST elevations >3 times the ULN. Among these patients, 1.2% (2/167) had concurrent ALT or AST elevations >3 times the ULN and total bilirubin ≥2 times the ULN.
Similarly, more subjects in the vorasidenib arm experienced treatment-related TEAEs than the placebo arm (65 [38.9%] vs. 26 [16.0%] subjects, respectively).
Table 4. Overall Summary of Treatment-Emergent Adverse Events from SMQ (Broad Search) of Hepatic Enzymes Elevation Liver-Related Investigations, Signs and Symptoms—Glioma with Vorasidenib 40 mg QD
Most of the TEAEs were managed within the clinical trial protocol, and discontinuations due to elevated liver enzyme effects were rare (5 subjects, 3%). The median time to resolution (TTR) for the most common (occurred in ≥2 subjects) Grade ≥3 TEAEs in subjects in the vorasidenib arm are as follows:
The exposure-efficacy analysis used the area under the curve (AUCeot) at steady state based on the actual average dose across the treatment duration until EOT.
For the 14 subjects with dose reductions due to hepatotoxicity AE, a swimming plot showing time on study by individual subject is provided in the Figure. The plot includes details regarding timing and duration of TEAEs leading to dose reduction, timing and duration of reduced dose, as well as disease response by Blinded Independent Central Review (BIRC) at each assessment timepoint.

[4] = Vorasidenib plasma pharmacokinetics across doses (steady-state exposure, dose proportionality); format: in vivo, human
Experimental: At the therapeutic dose of 40 mg QD (Formulation 2), the PopPK model predicted geometric mean AUC,ss and Cmax,ss were 3 times lower than corresponding exposure metrics at 300 mg QD (Formulation 1).

[5] = test system: glioma; assay: Study AG881-C-004 (INDIGO): clinical response per BIRC and exposure-efficacy analysis; format: in vivo, human
Description: Exposure-efficacy analyses included clinical response to treatment, i.e., PFS, TTNI, OR (CR+PR+mR), CR+PR, all defined per blind independent review committee (BIRC). […] The exposure metrics were pop PK model predicted individual exposures by using post-hoc individual PK parameters and were based on the actual average dose across the treatment duration. The dose of vorasidenib used in the simulations is corrected for dose-reductions and interruptions occurring during the treatment in real life. […] The exposure-efficacy analysis used the area under the curve (AUCeot) at steady state based on the actual average dose across the treatment duration until EOT. […] For the 14 subjects with dose reductions due to hepatotoxicity AE, a swimming plot showing time on study by individual subject is provided in the Figure. The plot includes details regarding timing and duration of TEAEs leading to dose reduction, timing and duration of reduced dose, as well as disease response by Blinded Independent Central Review (BIRC) at each assessment timepoint.

[6] = Group A normal hepatic function, 20 mg single dose
[7] = Group B moderate hepatic impairment, 20 mg single dose
[8] = human, plasma, 20 mg, Group A normal hepatic function, 20 mg single dose
[9] = human, plasma, 20 mg, Group B moderate hepatic impairment, 20 mg single dose
[10] = 4 subjects further reduced from 20 mg QD to 10 mg QD
[11] = 10 subjects reduced from 40 mg QD to 20 mg QD only
[12] = 167 subjects with glioma, only PR
[13] = 167 subjects with glioma, only PR and MR

With `C[C@@H](Nc1nc(N[C@H](C)C(F)(F)F)nc(-c2cccc(Cl)n2)n1)C(F)(F)F` [vorasidenib, 6-(6-chloropyridin-2-yl)-N^2,N^4-bis((R)-1,1,1-trifluoropropan-2-yl)-1,3,5-triazine-2,4-diamine] the “Fecal excretion, total radioactivity recovery in feces” value [1] was 84.7%, the “AUC0-t and Cmax, normal hepatic function vs moderate hepatic impairment” value ([2]; 20 mg single dose) was “similar” and the “unbound AUC0-t higher in moderate hepatic impairment compared to normal hepatic function” value ([2]; 20 mg single dose) was 23%. For the same molecule, the “unbound plasma protein fraction, both groups compared” value ([2]; 20 mg single dose) was “similar”, the Tmax [2, 6] was 3.000 (0.500, 4.00) (10) h and the “Cmax, u” value [2, 6] was 0.8135 (41.7) (10) ng/mL. For the same molecule, the Tmax [2, 7] was 2.000 (1.00, 3.00) (9) h, the “Cmax, u” value [2, 7] was 1.104 (54.2) (9) ng/mL and the half-life [2, 8] was 443 ± 349 h. For the same molecule, the fraction unbound [2, 8] was 0.0223 ± 0.00245, the AUC(0-t) ([2]; human, plasma, 20 mg, Group A normal hepatic function, 20 mg single dose, geometric mean (geometric CV %), read-out: AUC0-t) was 1440 ng·h/mL and the Cmax ([2]; human, plasma, 20 mg, Group A normal hepatic function, 20 mg single dose, geometric mean (geometric CV %), read-out: Cmax) was 36.5 ng/mL. For the same molecule, the Tmax ([2]; human, plasma, 20 mg, Group A normal hepatic function, 20 mg single dose, read-out: Tmax) was roughly 3 h, the AUC(0-t) ([2]; human, plasma, 20 mg, Group A normal hepatic function, total plasma, 20 mg, read-out: AUC0-t, Geometric Mean (linear mixed effects model)) was 1390 ng·h/mL and the Cmax ([2]; human, plasma, 20 mg, Group A normal hepatic function, total plasma, 20 mg, read-out: Cmax, Geometric Mean (linear mixed effects model)) was 38.2 ng/mL. It also gave a half-life [2, 9] of 360 ± 189 h, a fraction unbound [2, 9] of 0.0289 ± 0.00354 and an AUC(0-t) ([2]; human, plasma, 20 mg, Group B moderate hepatic impairment, 20 mg single dose, geometric mean (geometric CV %), read-out: AUC0-t) of 1680 ng·h/mL. The Cmax ([2]; human, plasma, 20 mg, Group B moderate hepatic impairment, 20 mg single dose, geometric mean (geometric CV %), read-out: Cmax) was 38.5 ng/mL, the Tmax ([2]; human, plasma, 20 mg, Group B moderate hepatic impairment, 20 mg single dose, read-out: Tmax) was roughly 2 h and the AUC(0-t) ([2]; human, plasma, 20 mg, Group B moderate hepatic impairment, total plasma, 20 mg, read-out: AUC0-t, Geometric Mean (linear mixed effects model)) was 1750 ng·h/mL. The Cmax ([2]; human, plasma, 20 mg, Group B moderate hepatic impairment, total plasma, 20 mg, read-out: Cmax, Geometric Mean (linear mixed effects model)) was 38.5 ng/mL, the “tolerability of single-dose administration” value ([2]; in vivo) was “tolerable” and the “AUC0-t, Ratio (%) of Geometric Means (Test/Reference)” value ([2]; 20 mg) was 126%. For the same molecule, the “Cmax, Ratio (%) of Geometric Means (Test/Reference)” value ([2]; 20 mg) was 101%, the “AUC0-t, Ratio (%) of Geometric Means (Test/Reference)” value ([2]; 20 mg, listed as Vorasidenib) was 125.97% and the “Cmax, Ratio (%) of Geometric Means (Test/Reference)” value ([2]; 20 mg, listed as Vorasidenib) was 100.66%. The “effect of moderate hepatic impairment (Child-Pugh) on total or free (unbound) exposure” value ([2]; single oral dose of 20 mg) was “did not lead to clinically relevant changes”, the “TEAEs leading to death, number of subjects” value ([3]; post-crossover, N = 52) was 0 subjects and the “Treatment-related TEAEs leading to death, number of subjects” value ([3]; post-crossover, N = 52) was 0 subjects. The “TEAEs leading to death, number of subjects” value ([3]; without crossover, N = 167) was 0 subjects, the “Treatment-related TEAEs leading to death, number of subjects” value ([3]; without crossover, N = 167) was 0 subjects and the “TEAEs (overall) leading to dose reduction, % of subjects” value ([3]; human, in vivo) was 10.8%. The “TEAEs (overall) leading to dose reduction, number of subjects” value ([3]; human, in vivo) was 18 subjects, the “alanine aminotransferase increased leading to dose reduction, % of subjects” value ([3]; human, in vivo) was 7.8% and the “alanine aminotransferase increased leading to dose reduction, number of subjects” value ([3]; human, in vivo) was 13 subjects. For the same molecule, the “alanine aminotransferase increased: % with TTR in >60 days” value ([3]; human, in vivo) was 41.9%, the “alanine aminotransferase increased: % with TTR in ≤15 days” value ([3]; human, in vivo) was 9.3% and the “alanine aminotransferase increased: number of subjects with TTR in >60 days” value ([3]; human, in vivo) was 36 subjects. For the same molecule, the “alanine aminotransferase increased: number of subjects with TTR in ≤15 days” value ([3]; human, in vivo) was 8 subjects, the “aspartate aminotransferase increased: % with TTR in >60 days” value ([3]; human, in vivo) was 21.4% and the “aspartate aminotransferase increased: % with TTR in ≤15 days” value ([3]; human, in vivo) was 28.6%. The “aspartate aminotransferase increased: number of subjects with TTR in >60 days” value ([3]; human, in vivo) was 15 subjects, the “aspartate aminotransferase increased: number of subjects with TTR in ≤15 days” value ([3]; human, in vivo) was 20 subjects and the “effect of exposure (AUCavg and Cmax,avg) on ALT, AST, and bilirubin (all grade and Grade ≥2)” value ([3]; human, in vivo) was “no statistically significant effect”. The “median TTR for aspartate aminotransferase increased (any grade)” value ([3]; human, in vivo) was 29.0 days, the “median time to resolution (TTR) for alanine aminotransferase increased (any grade)” value ([3]; human, in vivo) was 56.0 days and the “patients with ALT elevations ≥3 times the ULN” value ([3]; human, in vivo) was 18.6%. The “patients with ALT elevations ≥3 times the ULN (number/total)” value ([3]; human, in vivo) was 31/167, the “patients with AST elevations >3 times the ULN” value ([3]; human, in vivo) was 8.4% and the “patients with AST elevations >3 times the ULN (number/total)” value ([3]; human, in vivo) was 14/167. For the same molecule, the “patients with concurrent ALT or AST elevations >3 times the ULN and total bilirubin ≥2 times the ULN” value ([3]; human, in vivo) was 1.2%, the “patients with concurrent ALT or AST elevations >3 times the ULN and total bilirubin ≥2 times the ULN (number/total)” value ([3]; human, in vivo) was 2/167 and the “subjects requiring a dose reduction from 40 mg QD to 20 mg QD only” value ([3]; human, in vivo) was 10 subjects. For the same molecule, the “subjects requiring a second dose reduction from 20 mg QD to 10 mg QD” value ([3]; human, in vivo) was 4 subjects, the “subjects with at least 1 dose reduction based on the exposure data (any reason), %” value ([3]; human, in vivo) was 16.2% and the “subjects with at least 1 dose reduction based on the exposure data (any reason), number” value ([3]; human, in vivo) was 27 subjects. The “course of liver enzyme and bilirubin increases” value ([3]; in vivo) was “transient and improved or resolved”, the “dose proportionality of PK” value ([4]; from 10 to 200 mg) was “dose proportional” and the “time dependence of PK” value ([4]; in vivo) was “not time-dependent”. For the same molecule, the “subjects with best response of SD while receiving 10 mg QD” value [5, 10] was “Three”, the “subjects with response of PD while receiving 10 mg QD” value [5, 10] was 1 subject and the “subjects with best response of MR by BIRC while receiving 20 mg QD” value [5, 11] was 1 subject. The “subjects with best response of PD by BIRC while receiving 20 mg QD” value [5, 11] was “one”, the “subjects with best response of SD by BIRC while receiving 20 mg QD” value [5, 11] was 8 subjects and the “subjects with intervention (TTNI), %” value ([5]; 167 subjects with glioma) was 11.4%. The “subjects with intervention (TTNI), number” value ([5]; 167 subjects with glioma) was 19 subjects, the “subjects with progression (PFS) per BIRC, %” value ([5]; 167 subjects with glioma) was 28.1% and the “subjects with progression (PFS) per BIRC, number” value ([5]; 167 subjects with glioma) was 47 subjects. For the same molecule, the “subjects with CR+PR per BIRC, %” value [5, 12] was 1.2%, the “subjects with CR+PR per BIRC, number” value [5, 12] was 2 subjects and the “subjects with OR (CR+PR+mR) per BIRC, %” value [5, 13] was 10.8%. The “subjects with OR (CR+PR+mR) per BIRC, number” value [5, 13] was 18 subjects and the “effect of exposure on efficacy responses (PFS, TTNI, OR and CR+PR)” value ([5]; studied exposure range, Study AG881-C-004) was “did not affect efficacy responses”.

Reference: US20260199363A1, “METHOD OF TREATING CANCER IN A PATIENT WITH HEPATIC DYSFUNCTION” (priority 2023, published 2026)
